Experimental findings from US8470344B2, “Aqueous dispersions and solutions of difficult to dissolve materials and methods of their preparation” (Teva Pharmaceutical Industries Ltd., priority 2005, dated 2013) are described below.

Data set [1] can be described thus: Dissolving or dispersing the compound-covered substrate matrix (dry powder) in water. It is filed as physicochemical. As to the method: 1 mL of the Latanoprost solution (6.4 mg/mL) in ethanol was added to a mixture of NaH2PO4*H2O (0.553 g) and Na2HPO4 (0.564 g). The resulting mixture was dried under reduced pressure at room temperature to yield dry powder particles having latanoprost on the surface thereof. The dry powder was dissolved in water (120 mL) to form a solution. Benzalkonium chloride was added to the solution.
Latanoprost (17.97 mg) was dissolved in acetonitrile (5 mL). 1.5 mL of this solution were added to mixture of NaH2PO4 (0.464 g) and Na2HPO4 (0.469 g). The resulting mixture was dried under reduced pressure to obtain a dry powder. 50 mL of water were added to dry powder and stirred during 5 minutes. A fine suspension of Latanoprost with concentration about 0.01% (w/v) was obtained. 50 mL of water, containing Benzalkonium chloride and sodium chloride, were added to this suspension and stirred. The obtained clear solution of Latanoprost had concentration 0.005% (w/v).
Dexamethasone (104.05 mg) was dissolved in acetonitrile (5 mL). 1 mL of this solution was added to 545 mg of NaH2PO4*H2O and the mixture was dried in a reduced pressure for 15 hours. 20 mL of water were added and mixture was stirred. A fine suspension of dexamethasone (concentration about 0.1% w/v) was obtained.

Data set [2] can be described thus: Comparative example: direct dissolution of latanoprost in water containing NaH2PO4 with stirring. It is filed as physicochemical. How it is done: Latanoprost (5.621 mg) was dissolved in water (100 mL), containing NaH2PO4 (0.463 g). The mixture was stirred for 120 minutes.
The mixture from Example 3 was heated at 40° C. with stirring for 120 minutes. A solution of Latanoprost with concentration 0.00407% (w/v, or 81.4% of target concentration 0.005%) was obtained.

`CC(C)OC(=O)CCC/C=C\C[C@@H]1[C@@H](CC[C@@H](O)CCc2ccccc2)[C@H](O)C[C@@H]1O` [Latanoprost, Isopropyl (Z)-7-{(1R,2R,3R,5S)-3,5-dihydroxy-2-[3(R)-(3-hydroxyl-5-phenyl)pentyl]cyclopentyl}-5-heptenoate]: the “content of Latanoprost in resultant solution” value in data set [1] (Example 1: ethanol solution dried on NaH2PO4*H2O/Na2HPO4, powder dissolved in water (120 mL), benzalkonium chloride added, room temperature) is 0.005 % (w/v). The “appearance and stability of resultant solution” value in data set [1] (Example 1: powder dissolved in water (120 mL), benzalkonium chloride added) is “transparent and stable”. Further, in data set [1] (Example 2: acetonitrile solution dried on NaH2PO4/Na2HPO4, 50 mL water, stirred 5 minutes), the “concentration of fine suspension of Latanoprost” value is given as “about 0.01 % (w/v)”. Moreover, the “concentration of obtained clear solution of Latanoprost” value in data set [1] (Example 2: after further 50 mL water containing benzalkonium chloride and sodium chloride) is listed as 0.005 % (w/v). The “Latanoprost concentration of aqueous solution” value in data set [2] (Example 3 (comparative): 5.621 mg in water (100 mL) with NaH2PO4, stirred 120 minutes) is reported as 0.00015 % (w/v). In addition, the “percent of target concentration of 0.005%” value in data set [2] (Example 3 (comparative): stirred 120 minutes, no heating) is 30%. Further, the “percent of target concentration 0.005%” value in data set [2] (Example 4 (comparative): heated at 40° C. with stirring for 120 minutes) was determined as 81.4%. Further, in data set [2] (Example 4 (comparative): mixture from Example 3 heated at 40° C. with stirring for 120 minutes), the “concentration of solution of Latanoprost” value was 0.00407 % (w/v).
